In US20120035180A1, “PHARMACEUTICAL COMPOSITION FOR TREATING CANCER COMPRISING CHLORIN E6-FOLIC ACID CONJUGATE COMPOUND AND CHITOSAN” (priority 2009, published 2012):

Experiments:
Hela cells [1] = assay: Phototoxicity, 24 h incubation, 1.5-15 joule/cm^2; assay type: cell-based; settings: 670-690 nm
Procedure: In other experiment, the cells were incubated with photosensitizers at 37° C. for 24 hours, and irradiated by exposed on ice by a laser medical device “LD 680-2000” (wavelength of 670-690 nm) in a dose of 1.5-15 joule/cm^2.

HeLa cell culture = assay: Phototoxicity (photodynamic activity), 3.5 h incubation, 3.3 joule/cm^2; assay type: cell-based; design: number of HELA cells (relative to the control): unit not given here; settings: incubation 3.5 hours
Procedure: To examine the photodynamic effects of a photosensitizer on a HeLa cell culture, the photosensitizer solution was added to the nutrient media at a final concentration of 0.1, 0.5, 1.0, 5.0 or 10 mcg/ml on day 3 after transplanting the cell culture into flasks. The flasks were wrapped with a light protecting cover, and incubated at 37° C. for 3.5 hours. Then, the cells were washed with Hank's solution, and exposed on ice by a laser medical device “LD 680-2000” (wavelength: 670-690 nm) at a dose of 3.3 joule/cm^2. After 20-24 hours, the available cell monolayer was dispersed using a 0.02%-Versene solution, and the number of tumor cells was calculated in Goriaev's chamber. For each point, 3 flasks were used.

HeLa tumor cells = assay: Cytotoxicity (antiproliferative assay) in the absence of light exposure; assay type: cell-based; settings: 24 hr incubation
Procedure: Cytotoxicity was analyzed, considering the intensity of proliferative processes in cells, photosensitizer concentration, and dose of optical power. For each point, 3 flasks with cell monolayer were used.
The monolayer culture of HeLa tumor cells was chosen and used as the cell.
The culture of HeLa tumor cells was grown in nutrient medium 199 or in nutrient medium containing hemohydrolyzate supplemented with 10% fetal bovine serum and […] of kanamycin.
On day 4 after the cell culture was inoculated in the flasks (100,000 cells per 2.0 ml of nutrient medium), the photosensitizer was added at a concentration of 1, 2.5, 5.0, 10.0, 20.0, or 30.0 mg/ml.
Flasks with light-protective cover (dark cytotoxicity) were incubated at 37.5° C. for 1 hour. The cells were washed with Hank's solution 4 times. 2.0 ml of fresh nutrient medium were added, and the cells were irradiated at the temperature of melting ice for 5, 10, 15 or 20 mins by the light flux of a “METALAZ” laser medical device (wavelength: 627.8 nm, 578.2 or 510.6 nm) or “LD 680-2000” (wavelength: 670-690 nm), depending on the wavelength of maximum spectral absorption of the studied photosensitizer, at a dose of 40 J/cm^2. After 20-24 hours, the number of tumor cell was counted in Goriaev's chamber.

Hela cells [2] = assay: Accumulation in Hela cells; assay type: cell-based; settings: 2×10^−7 M/l, 37° C.
Procedure: The cellular accumulation and the targeted delivery of the photoactive compounds were investigated using Hela cells, which is one of the numerous tumor cell types that overexpress folate receptors.
Cells were cultivated for 3 days in medium 199, and transferred to Hank's solution/medium 199 (9/1). After 3 hours, the cell were collected by trypsin treatment from the substrate and placed in Hank's solution (10^5 κπ/ml). To cell suspensions, chlorin e6 conjugates were added at a concentration of 2×10^−7 M/l, and incubated at 37° C. After 1, 5, 10, 15, and 24 hours, the samples were centrifuged, the pellet was washed with the cooled Hank's solution, and transferred to Hank's solution at a concentration being equal to that in the initial suspension.

[3] = system: transporter of restored vectors (TRV); settings: cited from earlier work

C=Cc1c(C)c2cc3nc(c(CC(=O)O)c4[nH]c(cc5nc(cc1[nH]2)C(C)=C5CC)c(C)c4C(=O)O)C(CCC(=O)O)C3C (stereo not drawn) [chlorin e6, 13-carboxy-17-[2-carboxyethyl]-15-carboxymethyl-17,18-trans-dihydro-3-vinyl-8-ethyl-2,7,12,18-tetramethylporphyrin]
phototoxicity / photosensitivity in survival test (Hela cells [1]): little phototoxicity
number of HELA cells (relative to the control) (HeLa cell culture; photoexposure 3.3 joule/cm^2, conc. 0.1 mcg/ml): 87.1
number of HELA cells (relative to the control) (HeLa cell culture; photoexposure 3.3 joule/cm^2, conc. 0.5 mcg/ml): 83.6
number of HELA cells (relative to the control) (HeLa cell culture; photoexposure 3.3 joule/cm^2, conc. 1.0 mcg/ml): 64.7
number of HELA cells (relative to the control) (HeLa cell culture; photoexposure 3.3 joule/cm^2, conc. 5.0 mcg/ml): 19
number of HELA cells (relative to the control) (HeLa cell culture; photoexposure 3.3 joule/cm^2, conc. 10.0 mcg/ml): 3.8
cell survival rates (HeLa tumor cells): about 90%
concentration in Hela cells (Hela cells [2]; incubation time 1 hours): 0.86 relative units/10^4cl.
concentration in Hela cells (Hela cells [2]; incubation time 5 hours): 1.45 relative units/10^4cl.
concentration in Hela cells (Hela cells [2]; incubation time 10 hours): 1.72 relative units/10^4cl.
concentration in Hela cells (Hela cells [2]; incubation time 15 hours): 0.81 relative units/10^4cl.
concentration in Hela cells (Hela cells [2]; incubation time 24 hours): 0.40 relative units/10^4cl.

Nc1nc(O)c2nc(CNc3ccc(C(=O)N[C@@H](CCC(=O)O)C(=O)O)cc3)cnc2n1 [folic acid, N-[4(2-Amino-4-hydroxypteridin-6-ylmethylamino)benzoyl]-L(+)-glutamic acid]
affinity of the carrier (TRV) [3]: about 200 μM
